Reference: ChEMBL document CHEMBL6153110, “Peptide Double-Stapling and Arginine N-Glycosylation Triggered the Development of Therapeutic Antimicrobial Peptides Capable of Killing Drug-Resistant Bacteria in Mice” (J Med Chem, 2025)
In brackets after ≈: the same amount, converted by molar mass. Starred links: 1 amine or outer side, 2 acyl side, 3 side chain; linkers in the order of their positions; H or OH if unused. Positions of bridges follow the written chain, without caps; N, C: chain ends. Non-standard residues stand in square brackets, D forms with d. Residues, ends and D or L forms follow the SMILES beside them. X1 = N=C(NCCC[C@H](N[*:1])C(=O)[*:2])N[C@@H]1O[C@H](CO)[C@@H](O[C@H]2O[C@H](CO)[C@@H](O[C@H]3O[C@H](CO)[C@@H](O)[C@H](O)[C@H]3O)[C@H](O)[C@H]2O)[C@H](O)[C@H]1O; Arg(Nω-βLac) = N=C(NCCC[C@H](N)C(=O)O)N[C@@H]1O[C@H](CO)[C@@H](O[C@@H]2O[C@H](CO)[C@H](O)[C@H](O)[C@H]2O)[C@H](O)[C@H]1O; X2 = CC(=O)N[C@@H]1[C@@H](O)[C@H](O)[C@@H](CO)O[C@H]1NC(=N)NCCC[C@H](N[*:1])C(=O)[*:2]; S5 = C=CCCC[C@](C)(N)C(=O)O

What was measured:
[1] = Hemolytic activity in BALB/c mouse red blood cells assessed as hemolysis incubated for 1 hrs; format: toxicity, cell-based, Erythrocyte; details: read-out: HD50
Streptococcus pneumoniae = test: Antimicrobial activity against Streptococcus pneumoniae ATCC 49619 assessed as growth inhibition measured after 8 hrs incubation by standard broth dilution assay; format: functional
Staphylococcus aureus = test: Antimicrobial activity against methicillin-resistant Staphylococcus aureus ATCC 43300 assessed as growth inhibition measured after 8 hrs incubation by standard broth dilution assay; format: functional
Klebsiella pneumoniae = test: Antimicrobial activity against Klebsiella pneumoniae ATCC 13883 assessed as growth inhibition measured after 8 hrs incubation by standard broth dilution assay; format: functional
Pseudomonas aeruginosa = test: Antimicrobial activity against Pseudomonas aeruginosa ATCC 27853 assessed as growth inhibition measured after 8 hrs incubation by standard broth dilution assay; format: functional

Row | Compound | HC50 at 1 h [1] [µg/mL] | MIC (Streptococcus pneumoniae) [µg/mL] | MIC (Staphylococcus aureus) [µg/mL] | MIC (Klebsiella pneumoniae) [µg/mL] | MIC (Pseudomonas aeruginosa) [µg/mL]
1 | CC(=O)N[C@@H](CC(C)C)C(=O)N[C@@H](CCCCN)C(=O)N[C@@H](CCCNC(=N)N)C(=O)N[C@H](C(=O)N[C@@H](Cc1c[nH]c2ccccc12)C(=O)N[C@@H](CCCCN)C(=O)N[C@@H](CCCNC(=N)N)C(=O)N[C@H](C(=O)N[C@@H](Cc1ccccc1)C(=O)N[C@@H](CCCCN)C(=O)N[C@@H](CC(C)C)C(=O)N[C@@H](CC(C)C)C(=O)N[C@@H](CCCCN)C(=O)N[C@@H](CCCNC(=N)N)C(=O)N[C@@H](Cc1ccc(O)cc1)C(=O)N[C@@H](Cc1c[nH]c2ccccc12)C(=O)N[C@@H](CCCNC(=N)N)C(=O)N[C@@H](CCC(N)=O)C(=O)N[C@@H](CC(C)C)C(=O)N[C@@H](CCCCN)C(=O)N[C@@H](CCCCN)C(=O)N1CCC[C@H]1C(=O)N[C@H](C(=O)N[C@@H](CCCNC(=N)N[C@@H]1O[C@H](CO)[C@@H](O[C@@H]2O[C@H](CO)[C@H](O)[C@H](O)[C@H]2O)[C@H](O)[C@H]1O)C(N)=O)C(C)C)C(C)C)C(C)C (Ac-LKRVWKRVFKLLKRYWRQLKKPV[Arg(Nω-βLac)]-NH2) | 39.7 | 4.7 (≈ 1.31 µM) | 4.9 (≈ 1.36 µM) | 38 (≈ 10.6 µM) | 5 (≈ 1.39 µM)
2 | CC(=O)N[C@@H](CC(C)C)C(=O)N[C@@H](CCCCN)C(=O)N[C@@H](CCCNC(=N)N)C(=O)N[C@H](C(=O)N[C@@H](Cc1c[nH]c2ccccc12)C(=O)N[C@@H](CCCCN)C(=O)N[C@@H](CCCNC(=N)N)C(=O)N[C@H](C(=O)N[C@@H](Cc1ccccc1)C(=O)N[C@@H](CCCCN)C(=O)N[C@@H](CC(C)C)C(=O)N[C@@H](CC(C)C)C(=O)N[C@@H](CCCCN)C(=O)N[C@@H](CCCNC(=N)N)C(=O)N[C@@H](Cc1ccc(O)cc1)C(=O)N[C@@H](Cc1c[nH]c2ccccc12)C(=O)N[C@@H](CCCNC(=N)N)C(=O)N[C@@H](CCC(N)=O)C(=O)N[C@@H](CC(C)C)C(=O)N[C@@H](CCCCN)C(=O)N[C@@H](CCCCN)C(=O)N1CCC[C@H]1C(=O)N[C@H](C(=O)N[C@@H](CCCNC(=N)N[C@@H]1O[C@H](CO)[C@@H](O[C@H]2O[C@H](CO)[C@@H](O[C@H]3O[C@H](CO)[C@@H](O)[C@H](O)[C@H]3O)[C@H](O)[C@H]2O)[C@H](O)[C@H]1O)C(N)=O)C(C)C)C(C)C)C(C)C (Ac-LKRVWKRVFKLLKRYWRQLKKPV[X1]-NH2) | 45.7 | 4.7 (≈ 1.25 µM) | 4.9 (≈ 1.31 µM) | 38 (≈ 10.1 µM) | 2.6 (≈ 0.693 µM)
3 | CC(=O)N[C@@H]1[C@@H](O)[C@H](O)[C@@H](CO)O[C@H]1NC(=N)NCCC[C@H](NC(=O)[C@@H](NC(=O)[C@@H]1CCCN1C(=O)[C@H](CCCCN)NC(=O)[C@H](CCCCN)NC(=O)[C@H](CC(C)C)NC(=O)[C@H](CCC(N)=O)NC(=O)[C@H](CCCNC(=N)N)NC(=O)[C@H](Cc1c[nH]c2ccccc12)NC(=O)[C@H](Cc1ccc(O)cc1)NC(=O)[C@H](CCCNC(=N)N)NC(=O)[C@H](CCCCN)NC(=O)[C@H](CC(C)C)NC(=O)[C@H](CC(C)C)NC(=O)[C@H](CCCCN)NC(=O)[C@H](Cc1ccccc1)NC(=O)[C@@H](NC(=O)[C@H](CCCNC(=N)N)NC(=O)[C@H](CCCCN)NC(=O)[C@H](Cc1c[nH]c2ccccc12)NC(=O)[C@@H](NC(=O)[C@H](CCCNC(=N)N)NC(=O)[C@H](CCCCN)NC(=O)[C@H](CC(C)C)NC(C)=O)C(C)C)C(C)C)C(C)C)C(N)=O (Ac-LKRVWKRVFKLLKRYWRQLKKPV[X2]-NH2) | 35.8 | 4.7 (≈ 1.35 µM) | 4.9 (≈ 1.41 µM) | 38 (≈ 10.9 µM) | 5 (≈ 1.44 µM)
4 | CC(=O)N[C@@H](CC(C)C)C(=O)N[C@@H](CCCCN)C(=O)N[C@@H](CCCNC(=N)N)C(=O)N[C@H](C(=O)N[C@@H](Cc1c[nH]c2ccccc12)C(=O)N[C@@H](CCCCN)C(=O)N[C@@H](CCCNC(=N)N)C(=O)N[C@H](C(=O)N[C@@H](Cc1ccccc1)C(=O)N[C@@H](CCCCN)C(=O)N[C@@H](CC(C)C)C(=O)N[C@@H](CC(C)C)C(=O)N[C@@H](CCCCN)C(=O)N[C@@]1(C)CCC/C=C\CCC[C@@](C)(C(=O)N[C@@H](CC(C)C)C(=O)N[C@@H](CCCCN)C(=O)N[C@@H](CCCCN)C(=O)N2CCC[C@H]2C(=O)N[C@H](C(=O)N[C@@H](CCCNC(=N)N)C(N)=O)C(C)C)NC(=O)[C@H](CCCNC(=N)N)NC(=O)[C@H](Cc2c[nH]c3ccccc23)NC(=O)[C@H](CCCCN)NC1=O)C(C)C)C(C)C (Ac-LKRVWKRVFKLLK[S5]KWR[S5]LKKPVR-NH2; staple (Z) 14-18) | 53.6 | 2.4 (≈ 0.75 µM) | 10.1 (≈ 3.16 µM) | 38 (≈ 11.9 µM) | 5 (≈ 1.56 µM)
5 | CC(=O)N[C@@H](CC(C)C)C(=O)N[C@@H](CCCCN)C(=O)N[C@@H](CCCNC(=N)N)C(=O)N[C@H](C(=O)N[C@@H](Cc1c[nH]c2ccccc12)C(=O)N[C@@H](CCCCN)C(=O)N[C@@H](CCCNC(=N)N)C(=O)N[C@H](C(=O)N[C@@H](Cc1ccccc1)C(=O)N[C@@H](CCCCN)C(=O)N[C@@H](CC(C)C)C(=O)N[C@@H](CC(C)C)C(=O)N[C@@H](CCCCN)C(=O)N[C@@]1(C)CCC/C=C\CCC[C@@](C)(C(=O)N[C@@H](CC(C)C)C(=O)N[C@@H](CCCCN)C(=O)N[C@@H](CCCCN)C(=O)N2CCC[C@H]2C(=O)N[C@H](C(=O)N[C@@H](CCCNC(=N)N)C(N)=O)C(C)C)NC(=O)[C@H](CCCNC(=N)N)NC(=O)[C@H](CCCCN)NC(=O)[C@H](Cc2ccc(O)cc2)NC1=O)C(C)C)C(C)C (Ac-LKRVWKRVFKLLK[S5]YKR[S5]LKKPVR-NH2; staple (Z) 14-18) | 21 | 4.7 (≈ 1.48 µM) | 4.9 (≈ 1.54 µM) | 38 (≈ 12 µM) | 5 (≈ 1.57 µM)
6 | CC(=O)N[C@@H](CC(C)C)C(=O)N[C@@H](CCCCN)C(=O)N[C@@H](CCCNC(=N)N)C(=O)N[C@H](C(=O)N[C@@H](Cc1c[nH]c2ccccc12)C(=O)N[C@@H](CCCCN)C(=O)N[C@@H](CCCNC(=N)N)C(=O)N[C@H](C(=O)N[C@@H](Cc1ccccc1)C(=O)N[C@@H](CCCCN)C(=O)N[C@@H](CC(C)C)C(=O)N[C@@H](CC(C)C)C(=O)N[C@@H](CCCCN)C(=O)N[C@@]1(C)CCC/C=C\CCC[C@@](C)(C(=O)N[C@@H](CCCCN)C(=O)N[C@@H](CCCCN)C(=O)N[C@@H](CCCCN)C(=O)N2CCC[C@H]2C(=O)N[C@H](C(=O)N[C@@H](CCCNC(=N)N)C(N)=O)C(C)C)NC(=O)[C@H](CCCNC(=N)N)NC(=O)[C@H](Cc2c[nH]c3ccccc23)NC(=O)[C@H](Cc2ccc(O)cc2)NC1=O)C(C)C)C(C)C (Ac-LKRVWKRVFKLLK[S5]YWR[S5]KKKPVR-NH2; staple (Z) 14-18) | 10.8 | 4.7 (≈ 1.45 µM) | 10.1 (≈ 3.11 µM) | 19 (≈ 5.85 µM) | 5 (≈ 1.54 µM)
7 | CC(=O)N[C@@H](CC(C)C)C(=O)N[C@@H](CCCCN)C(=O)N[C@@H](CCCNC(=N)N)C(=O)N[C@H](C(=O)N[C@@H](Cc1c[nH]c2ccccc12)C(=O)N[C@@H](CCCCN)C(=O)N[C@@H](CCCNC(=N)N)C(=O)N[C@H](C(=O)N[C@@H](Cc1ccccc1)C(=O)N[C@@H](CCCCN)C(=O)N[C@@H](CC(C)C)C(=O)N[C@@H](CC(C)C)C(=O)N[C@@H](CCCCN)C(=O)N[C@@]1(C)CCC/C=C\CCC[C@@](C)(C(=O)N[C@@H](CC(C)C)C(=O)N[C@@H](CCCCN)C(=O)N[C@@H](CCCCN)C(=O)N[C@@H](CCCCN)C(=O)N[C@H](C(=O)N[C@@H](CCCNC(=N)N)C(N)=O)C(C)C)NC(=O)[C@H](CCCNC(=N)N)NC(=O)[C@H](Cc2c[nH]c3ccccc23)NC(=O)[C@H](Cc2ccc(O)cc2)NC1=O)C(C)C)C(C)C (Ac-LKRVWKRVFKLLK[S5]YWR[S5]LKKKVR-NH2; staple (Z) 14-18) | 13.1 | 4.7 (≈ 1.44 µM) | 4.9 (≈ 1.5 µM) | 10.1 (≈ 3.09 µM) | 5 (≈ 1.53 µM)
